Data taken from patent publication EP4653435A1, “PRMT5-MTA INHIBITOR” (Suzhou Puhe Biopharma Co., Ltd., priority 2023, dated 2024).

What was measured:
[1] = test system: HCT116-MTAPwt; assay: 2D antiproliferative assay (CTG cell viability), wild-type cells; type: cell-based; conditions: Homo sapiens, HCT-116, 7-10 days
[2] = test system: HCT116-MTAPdel; assay: 2D antiproliferative assay (CTG cell viability), MTAP-deficient cells; type: cell-based; conditions: for IC50: Homo sapiens, HCT-116, HCT116 MTAP-deficient cells, 7-10 days, CTG, read-out: HCT116-MTAPdel/IC50/nM; for HCT116WT IMTAPdel selectivity: ratio IC50 wild type / MTAPdel, antiproliferation
[3] = in vitro; conditions: human, microsomes
Protocol: (§6) The compounds to be tested were co-incubated with liver microsomes of different species with or without the addition of NADPH. The final concentration of the test compounds in the test system was 1 µM, the final concentration of NADPH was 1 mM, and the final concentration of liver microsomes was 0.5 mg/mL.

[4] = test system: MDR1 (P-gp); assay: in vitro; conditions: dog, MDCK-MDR1, pH 7.4
Protocol: (§1) The membrane permeability of the molecules of the present invention was evaluated to predict their permeability to the brain.
(§2) The specific procedure was: 1. MDCK-MDR1 cells were pre-cultured at a density of 1.56*10^6 cells/mL in a 96-well plate at 37°C for 7 days. 2. The MDCKII-MDR1 plate was taken out of the incubator, rinsed twice with pre-warmed HBSS (10 mM HEPES, pH 7.4), and then incubated at 37°C for 30 minutes. 3. The stock solution of the compound to be tested was diluted with DMSO to obtain a 0.2 mM solution, and then diluted with HBSS (10 mM HEPES, pH 7.4) to obtain a 1 µM working solution. A blank control group was also diluted with DMSO to obtain a 0.2 mM solution, and then diluted with HBSS (10 mM HEPES, pH 7.4) to obtain a 1 µM working solution. The final concentration of DMSO in the culture system was 0.5%. 4. The transport rate of the drug in the apical to basolateral direction was determined: 125 µL of the 1 µM test compound solution was added to a Transwell insert (top compartment), before immediately transferring a 50 µL sample (D0 sample) from the top comparment to a new 96-well plate. The receiving plate wells (basolateral compartment) were filled with 235 µL HBSS (10 mM HEPES, pH 7.4) and incubated at 37°C for 2 hours. 5. Upon completion of the incubation, 50 µL samples were transferred from the donor and acceptor sides to the wells of a new 96-well plate, before adding 4 volumes of cold acetonitrile containing an appropriate internal standard (IS). Prior to LC-MS/MS analysis, 100 µL of the supernatant was taken and mixed with an appropriate volume of ultrapure water. Papp = (VA×[drug]acceptor)/(Area×Time×[drug]initial,donor) [formula] where VA is the volume of the receptor pores (unit:mL), Area is the surface area of the membrane (0.143 cm^2 for a Transwell-96 well permeable support), and time is the total transport time in seconds. Efflux Ratio = Papp(B−A) /Papp(A−B) [formula]

[5] = in vitro; conditions: dog, MDCK-MDR1, pH 7.4
Protocol: as §1, §2

[6] = test system: SDMA/HCT116-MTAPwt; assay: In-cell arginine symmetric dimethylation inhibition (In-cell western, ICW), wild-type cells; type: cell-based; conditions: Homo sapiens, HCT-116, 96 hours
Protocol: (§3) 60 nL of different concentrations of compounds were added to each well using an Echo, and incubated at 37°C, 5% CO2 for 96 hours.
(§4) Next, 50 µL of 4% paraformaldehyde solution was added to each well and incubated at room temperature for 20 minutes to fix the cells. The solution in the wells was removed, and each well was rinsed four times with PBS solution containing 0.1% Tween 20 (PBST). To each well was then added 30 µL of ice-cold methanol. After standing at -20°C for 10 minutes, the methanol was removed and the wells washed four times with PBST. 30 µL of Odyssey blocking solution containing 0.5% Tween 20 was added to each well and shaken for 2 hours at room temperature. The blocking solution was removed and 30 µL of primary antibody (Symmetric Di-Methyl Arginine Motif [sdma-RG] MultiMab™ Rabbit mAb mix) diluted at 1:500 in Odyssey blocking solution containing 0.5% Tween 20 was added to each well. The plates were incubated overnight at 4°C, before removing the primary antibody and rinsing each well four times with PBST, 5 minutes per rinse. Secondary antibody (goat anti-rabbit IRDye 800CW, 1:800) and nuclear stain (DRAQ5, 1:10000) diluted in Odyssey blocking solution containing 0.5% Tween 20 were then added to each well before incubating at room temperature for 2 hours in the dark. The secondary antibody was removed, and the wells rinsed four times with PBST.
(§5) The sdme-RG and DRAQ5 signals were scanned at 800 nm and 700 nm respectively on a Li-Cor Odyssey instrument and the signal values recorded. The sdme-RG/DRAQ5 ratio was used to calculate the percentage inhibition of arginine symmetric dimethylation (SDMA), and the IC50 value calculated using GraphPad Prism software.

[7] = Liver microsomal stability assay, human; conditions: liver microsomes
Protocol: as §6

[8] = test system: SDMA/HCT116-MTAPdel; assay: In-cell arginine symmetric dimethylation inhibition (In-cell western, ICW), MTAP-deficient cells; type: cell-based; conditions: for IC50: Homo sapiens, HCT-116, HCT116 MTAP-deficient cells, 96 hours; for Selectivity wt/MTAPdel: ratio SDMA IC50 wt / MTAPdel
Protocol: as §3, §4, §5

[9] = molecular target: hERG channels (Homo sapiens, UniProt Q12809); assay: cell-based
Chain of hERG channels (Q12809 whole entry): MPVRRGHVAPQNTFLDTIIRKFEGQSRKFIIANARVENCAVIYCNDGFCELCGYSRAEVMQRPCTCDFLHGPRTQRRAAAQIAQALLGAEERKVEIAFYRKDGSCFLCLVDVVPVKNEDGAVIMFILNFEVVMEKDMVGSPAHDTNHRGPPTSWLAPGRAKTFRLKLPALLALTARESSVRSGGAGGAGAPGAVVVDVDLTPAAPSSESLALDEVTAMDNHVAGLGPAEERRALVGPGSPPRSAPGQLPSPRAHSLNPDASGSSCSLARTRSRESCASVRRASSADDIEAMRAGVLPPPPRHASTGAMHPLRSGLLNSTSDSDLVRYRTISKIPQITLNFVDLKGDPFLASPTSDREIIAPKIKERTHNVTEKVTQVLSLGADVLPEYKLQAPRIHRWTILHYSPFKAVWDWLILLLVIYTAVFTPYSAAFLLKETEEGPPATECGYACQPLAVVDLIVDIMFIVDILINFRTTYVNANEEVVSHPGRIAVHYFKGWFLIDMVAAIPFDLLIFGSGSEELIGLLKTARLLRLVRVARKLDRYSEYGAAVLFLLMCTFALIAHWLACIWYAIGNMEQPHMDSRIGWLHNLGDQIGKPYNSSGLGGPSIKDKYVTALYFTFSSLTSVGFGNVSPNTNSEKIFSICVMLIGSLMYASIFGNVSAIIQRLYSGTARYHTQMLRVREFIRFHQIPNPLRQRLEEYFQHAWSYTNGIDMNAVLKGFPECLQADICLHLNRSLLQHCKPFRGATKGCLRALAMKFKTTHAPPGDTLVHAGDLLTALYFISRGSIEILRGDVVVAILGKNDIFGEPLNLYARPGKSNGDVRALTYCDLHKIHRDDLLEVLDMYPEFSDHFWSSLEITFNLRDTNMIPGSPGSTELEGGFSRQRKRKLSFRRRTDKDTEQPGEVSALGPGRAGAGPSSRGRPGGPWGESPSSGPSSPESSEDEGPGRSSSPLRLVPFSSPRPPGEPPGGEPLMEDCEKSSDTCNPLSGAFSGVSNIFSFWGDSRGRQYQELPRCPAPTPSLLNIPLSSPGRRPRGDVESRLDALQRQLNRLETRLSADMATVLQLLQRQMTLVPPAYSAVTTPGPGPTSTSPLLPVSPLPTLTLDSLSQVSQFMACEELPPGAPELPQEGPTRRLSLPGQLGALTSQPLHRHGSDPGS
Protocol: The CHO hERG-Duo cell line stably expressing hERG channels was purchased from B'SYS GmbH and screened for monoclonal clones using the patch clamp system of Pharmaron Beijing Co., Ltd. The cells were cultured in a medium containing F12 (HAM) medium, 10% fetal bovine serum, 100 U/mL penicillin-streptomycin, 100 µg/mL hygromycin, and 100 µg/mL G418.
The membrane was depolarized to +30 mV for 4.8 seconds before returning the voltage to -50 mV for 5.2 seconds to remove inactivation and measure the deactivation tail current. The sampling interval was 15 seconds, and the peak tail current size was used to quantify the hERG current amplitude.
A blank vehicle was applied to the cells to establish a baseline. Test samples were introduced after stabilizing the hERG current for at least 5 minutes. In the presence of the test compound, the hERG current at different working concentrations was recorded for no less than 5 minutes until reaching a steady state, before capturing 5 sweeps. If a steady state was not reached within 10 minutes, the mean peak current of the last 5 sweeps was taken instead of the steady-state value. […] Peak current inhibition = (1−(Peak tail currentcompound −Peak tail currentpositive control)/(Peak tail currentBlank vehicle −Peak tail currentpositive control)) × 100 [formula]

[10] = test system: HUP-T4 (MTAPdel) human pancreatic cancer tumor cells; assay: In vivo efficacy, HUP-T4 subcutaneous xenograft; parameters: species or system BALB/c nude mice; conditions: BID, oral; for TGI: 28 consecutive days; for Tumor volume (mm^3)-D1: D1 (baseline at start of dosing)
Protocol: HUP-T4 (MTAPdel) human pancreatic cancer tumor cells (MEM medium with 10% fetal bovine serum) were cultured and inoculated into 6-8 week old female BALB/c nude mice (weighing about 25 g), with all mice subcutaneously inoculated. The mice were cultured in an SPF-grade environment, and all mice had free access to commercially certified standard diets. Test compounds were orally administered daily once the average tumor volume of the mice grew to about 176 mm^3. The control group received blank solvent (0.1% TW80+0.5% methylcellulose+99.4% saline), while the test group received a drug dose of 75 mg/kg or 50 mg/kg, twice a day. Tumor volume was measured in two dimensions with calipers three times a week, and the animals were weighed every day. […] Voume calculation formula: V=1/2a*b^2, where a denotes the long diameter of the tumor, and b the short diameter of the tumor.

[11] = Liver microsomal stability assay, mouse; type: in vitro ADME; conditions: mouse liver microsomes 0.5 mg/mL, compound 1 µM, NADPH 1 mM, 60 minute
Protocol: as §6

[12] = Mouse pharmacokinetics testing; type: in vivo, CD1 female mice; conditions: female, CD1, mouse, in vivo
Protocol: CD1 female mice were used as test animals and administered the compounds orally/intravenously (oral dosage was 10 mg/kg and intravenous dosage was 2 mg/kg). Test protocol: Each oral and intravenous group consisted of three mice. […] Plasma drug concentrations after oral and intravenous administration were determined by LC/MS/MS, and the collected data analyzed using AB Sciex QTRAP 6500 software.

SMILES | IC50 [1] | IC50 [2] | HCT116WT IMTAPdel selectivity [2] | efflux ratio [4] | Papp A→B [5] | Papp B→A [5] | IC50 [6] | CLint scaled at 1 µM [7] | IC50 [8] | Selectivity wt/MTAPdel [8] | IC50 [9] | further results
CN(C(=O)C(=O)Nc1cnc(N)c2c1cnn2C)C1COc2cc(SC(F)(F)F)ccc21 (racemic) [Compound P29] | 3300 nM | 20 nM | 165 |  |  |  |  |  |  |  |  | CLint scaled at 1 h, 1 µM [3]: 25.9 mL/min/kg
CN(C(=O)C(=O)Nc1cnc(N)c2c1cnn2C)[C@@H]1COc2cc(SC(F)(F)F)ccc21 [Compound P29a] | 2350 nM | 9 nM | 261 | 1.75 | 7.6 ×10⁻⁶ cm/s | 13.3 ×10⁻⁶ cm/s | 268 nM | 49.7 mL/min/kg | 0.4 nM | 670 | 1500 nM | 
[2H]C([2H])([2H])N(C(=O)C(=O)Nc1cnc(N)c2c1cnn2C)[C@@H]1COc2cc(SC(F)(F)F)ccc21 [Compound P32] | 1750 nM | 9 nM | 194 | 1.28 | 10.5 ×10⁻⁶ cm/s | 13.5 ×10⁻⁶ cm/s | 256 nM | 32 mL/min/kg | 0.3 nM | 853 | 2900 nM | TGI ([10]; 50 mg/kg): 97%; Tumor volume (mm^3)-D1 ([10]; 50 mg/kg): 176 mm^3; Tumor volume (mm^3)-D28 ([10]; 50 mg/kg): 198 mm^3; TGI ([10]; 75 mg/kg): 104%; Tumor volume (mm^3)-D1 ([10]; 75 mg/kg): 176 mm^3; Tumor volume (mm^3)-D28 ([10]; 75 mg/kg): 140 mm^3; CLint scaled at 1 µM [11]: 242 mL/min/kg; F [12]: 75%; AUC(0-t) ([12]; iv, 2 mg/kg): 788 ng·h/mL; C0 ([12]; iv, 2 mg/kg): 733 ng/mL; clearance ([12]; iv, 2 mg/kg): 41.8 mL/min/kg; half-life ([12]; iv, 2 mg/kg): 1.4 h; AUC(0-t) ([12]; po, 10 mg/kg): 2580 ng·h/mL; Cmax ([12]; po, 10 mg/kg): 798 ng/mL; Tmax ([12]; po, 10 mg/kg): 0.25 h; half-life ([12]; po, 10 mg/kg): 1.7 h
